Source: patent US4368194A, “Pharmacologically active amine boranes” (The United States of America as represented by the …, priority 1981, dated 1983)

How the values were obtained:
[1] = system: carrageenan induced edema in mouse foot pads; experiment: Anti-inflammatory screen (carrageenan induced foot edema); type: in vivo, mice; details: for Anti-inflammatory Screen: mice
Procedure: CF1 male mice (about 30 g) were administered test drugs at 10 mg/kg in 0.05% polysorbate .80-water intraperitoneally 3 hr and 30 min prior to 0.05 ml of 2% carrageenan in 0.9% saline injected into the plantar surface of the right hind foot. Saline injected into the left hind foot served as a base line. After 3 hr, both feet were excised at the tibiotarsal (ankle) joint according to the modified (Roszkowski et al., J. Pharm. Exp. Ther., 179, 114 1971) method of Winter, resulting in an 87 mg net increase in the weight of the control animals' feet.

CF1 male mice = experiment: Writhing reflex (acetic acid); type: in vivo; details: 20 mg/kg intraperitoneally, mice
Procedure: CF1 male mice were administered test drugs at 20 mg/kg intraperitoneally 20 min (see Hendershat et al., J. Pharmacol Exp. Ther. 125, 237 1959) prior to the administration of 0.5 ml of 0.6% acetic acid (Vingar et al., European J. PHarmacol, 37, 23 1976). After 5 min the number of stretches, characterized by repeated contractures of the abdominal musculature accompanied by extension of the hind limbs, was counted for the next 10 min. The control mice had 78 stretch reflexes per 10 min.

Acid phosphatase [2] = experiment: Lysosomal free acid phosphatase activity, liver homogenate; type: biochemical, rats; details: 5 μmoles, in vitro; 20 min
Procedure: (§1) Lysosomal enzymatic assays - Sprague Dawley rats (about 160 g) were sacrificed, the liver excised, and a 10% homogenate (4x) in 0.25 M sucrose and 0.001 M (ethylenedinitrilo) tetra acetic acid, ph 7.2 was prepared.
(§2) Acid phosphatase activity (Gianetto et al., Biochem J., 59, 433 1955) was carried out by incubating with 0.1 Mβ-glycerol phosphate in 0.1 M acetate, pH 5.0 with 5 μmoles of test drugs in 1% carboxymethylcellulose (CMC) for 20 min with liver homogenate and 60 min with resuspended PMNs. Lysosome enzymes were released by 0.02% alkyl phenoxy polyethoxy ethanol-100 to obtain the total enzymatic activity. The reaction was stopped with 10% trichloroacetic acid and the solution centrifuged. Aliquots of the supernatant were assayed for inorganic phophate content by the method of Chen et al., Anal Chem., 28, 1756 (1956). Percent free acid phosphatase was calculated. Cathepsin activity was determined in an analagous manner except the substrate used was 2% azocasein (Schleuning et al., Methods in Enzymology, XLV, 330 1976) in 0.1 M acetate buffer pH 5.0. The supernatant was assayed for acid soluble peptide fragments at 366 nm. Percent free cathepsin activity was calculated.

Cathepsin [3] = experiment: Lysosomal free cathepsin activity, liver homogenate; type: biochemical, rats; details: 5 μmoles; for Liver % Free Cathepsin Activity, pH5: in vitro, 20 min
Procedure: as §1, §2

Acid phosphatase [4] = experiment: Lysosomal free acid phosphatase activity, PMNs; type: cell-based; details: 5 μmoles, in vitro; 60 min
Procedure: (§3) Polymorphonuclear neutrophils (PMNs) were collected from the peritoneal cavity four hr after the injection of 35 ml of 0.5% oyster glycogen in isotonic saline (Orange et al., J. Exp. Med., 127, 767 1968). The PMNs were centrifuged down at 800 g for 20 min, washed, and resuspended in minumen essential medium (MEM) with 10% fetal calf serum pH 7.4.
as §2

Cathepsin [5] = experiment: Lysosomal free cathepsin activity, PMNs; type: cell-based; details: 5 μmoles, in vitro; 60 min
Procedure: as §3, §2

cAMP levels in PMNs = experiment: Cyclic-3',5'-adenosine monophosphate levels (cAMP) in PMNs; type: cell-based; details: 1 h, 5 μmoles; for activity at 5 µmol: pH 7.4, in vitro, read-out: PMNs cAMP Level
Procedure: as §3
Isolated PMNs were incubated with test drugs at 5μ moles for 1 hr at 37° C. in MEM at pH 7.4. The reaction was stopped with 6% trichloroacetic acid. The cyclic-3',5'-adenosine monophosphate levels were determined by the radioimmunoassay of Gilman, Proc. Natl. Acad. Sci. (USA), 67, 305 (1970), using 3H(G)-cyclic-3',5'-adenosine monophosphate (39.8 Cu/m mol). Results were calculated in p mole/10^7 PMNs cells.

[6] = biological target: T1, prostaglandin synthetase from beef seminal vesicle (Bos taurus, UniProt O62664); experiment: Prostaglandin synthetase activity; type: biochemical; details: 10^-6 M; for inhibition at 1 µM: read-out: inhibition of prostaglandin synthesis; for activity at 1 µM: 1 h, read-out: Prostaglandin Synthesis
T1 construct: purchased; host or cells: beef seminal vesicle
T1 sequence (O62664 25-600): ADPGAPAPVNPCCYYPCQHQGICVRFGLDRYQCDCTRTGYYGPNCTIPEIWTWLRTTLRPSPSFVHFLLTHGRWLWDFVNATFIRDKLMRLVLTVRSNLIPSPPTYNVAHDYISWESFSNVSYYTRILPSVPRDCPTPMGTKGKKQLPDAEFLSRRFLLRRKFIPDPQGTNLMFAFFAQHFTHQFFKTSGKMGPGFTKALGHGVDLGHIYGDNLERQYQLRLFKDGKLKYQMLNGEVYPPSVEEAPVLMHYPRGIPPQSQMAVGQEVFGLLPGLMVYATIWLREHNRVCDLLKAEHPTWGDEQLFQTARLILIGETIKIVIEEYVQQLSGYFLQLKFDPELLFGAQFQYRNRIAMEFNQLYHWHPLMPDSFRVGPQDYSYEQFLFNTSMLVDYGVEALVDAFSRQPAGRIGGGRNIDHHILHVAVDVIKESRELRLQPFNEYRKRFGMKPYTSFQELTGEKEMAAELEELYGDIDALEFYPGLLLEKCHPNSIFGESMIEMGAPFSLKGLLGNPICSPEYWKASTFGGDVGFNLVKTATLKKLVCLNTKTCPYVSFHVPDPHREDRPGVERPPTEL
Procedure: After 1 hr at 37° C. the reaction was stopped with 1 N HCl and extracted with ethyl ether and evaporated. […] The plates were dried and developed in iodine vapor and with the use of prostaglandin standards the appropriate areas were scraped and counted for ^3 H content. Indometacin was used as a standard at 10^-4 M concentration. Test drugs were used at 10^-6 M.

liver mitochondria [7] = experiment: Oxidative phosphorylation, succinate as substrate; type: biochemical, rats; details: 5 μmoles; for Oxidative Phosphorylation Succinate State 3: ADP stimulated respiration; for Oxidative Phosphorylation Succinate State 4: basal respiration
Procedure: (§4) Basal and adenosine diphosphate stimulated respiration on 10% liver homogenates was measured using succinate or αketoglutarate as substrate. See Glatt, et al., supra. The reaction vessel contained sucrose 55μ moles, KCl 22μ moles, K2 HPO4 22μ moles, test compounds at 5μ moles in 1% CMC and sodium succinate 90μ moles or αketoglutarate 60μ moles in a total volume of 1.8 ml. […] The rate of respiration was calculated at μl of O2 consumed/hr/mg wet weight of liver.

liver mitochondria [8] = experiment: Oxidative phosphorylation, α-ketoglutarate as substrate; type: biochemical, rats; details: 5 μmoles; for Oxidative Phosphorylation α Ketoglutarate State 3: ADP stimulated respiration; for Oxidative Phosphorylation α Ketoglutarate State 4: basal respiration
Procedure: as §4

in vivo = details: mouse

SMILES	Anti-inflammatory Screen ([1]; 10 mg/kg × 2 intraperitoneally)	inhibition of the carrageenan induced edema in mouse foot pads ([1]; text summary of Table II)	Writhing Reflex (CF1 male mice)	Liver % Free Acid Phosphatase Activity, pH5 (Acid phosphatase [2])	inhibition of free proteolytic cathepsin activity of liver (Cathepsin [3])	Liver % Free Cathepsin Activity, pH5 (Cathepsin [3])	PMNs % Free Acid Phosphatase Activity, pH5 (Acid phosphatase [4])	PMNs % Free Cathespin Activity, pH5 (Cathepsin [5])	activity at 5 µmol (cAMP levels in PMNs)	activation at 5 µmol (cAMP levels in PMNs; in vitro incubation, read-out: increase of cyclic adenosine monophosphate levels in PMNs)	inhibition at 1 µM [6]	activity at 1 µM [6]	both states 3 and 4 respiration with succinate (liver mitochondria [7])	Oxidative Phosphorylation Succinate State 3 (liver mitochondria [7])	Oxidative Phosphorylation Succinate State 4 (liver mitochondria [7])	uncoupling with α-ketoglutarate as substrate (liver mitochondria [8])	Oxidative Phosphorylation α Ketoglutarate State 3 (liver mitochondria [8])	Oxidative Phosphorylation α Ketoglutarate State 4 (liver mitochondria [8])	LD50 (in vivo)	Anti-inflammatory Screen ([1]; 1/3 dose (of 10 mg/kg × 2))
C[N+](C)([BH2-]C(=O)O)CC[N+](C)(C)[BH2-]C(=O)O [XII, N,N,N^1,N^1 -Tetramethylethylenediamine-bis(carboxyborane)]	58 % Control	at least 40%	54 % Control	69 ± 5 % Control	at least 75%	23 ± 6 % Control	84 ± 4 % Control	52 ± 4 % Control	155%	55%	> 30%	60 ± 6%	inhibited	57 ± 16 % Control	80 ± 11 % Control	uncoupling	48 ± 30 % Control	122 ± 15 % Control	> 1000 mg/kg	–
N#C[BH2-][n+]1ccccc1 [XV, pyridinecyanoborane]	–	–	80 % Control	79 ± 3 % Control	–	57 ± 4 % Control	57 ± 4 % Control	49 ± 7 % Control	110%	–	> 30%	58 ± 3%	–	57 ± 16 % Control	124 ± 16 % Control	–	52 ± 15 % Control	112 ± 42 % Control	25 mg/kg	83 % Control
CCNC(=O)[BH2-][N+](C)(C)CC[N+](C)(C)[BH2-]C(=O)NCC [XIII, N,N,N^1,N^1 -Tetramethylethylenediamine-bis(N-ethylamidoborane)]	65 % Control	–	55 % Control	74 ± 4 % Control	–	–	100 ± 7 % Control	70 ± 6 % Control	92%	–	–	100 ± 4%	–	66 ± 8 % Control	117 ± 8 % Control	uncoupling	50 ± 24 % Control	162 ± 43 % Control	> 1000 mg/kg	–
